Data taken from patent publication US20230286927A1, “2-PHENYLBENZOTRIAZOL-5-AMINE DERIVATIVES FOR THE TREATMENT AND PROPHYLAXIS OF HEPATITIS B VIRUS (HBV) INFECTION” (priority 2020, published 2023).

Experiments:
[1] = Cytotoxicity in PHH natural infection assay (Cell Counting Kit-8); assay type: cell-based; conditions: HBV-infected primary human hepatocytes, CCK8
Protocol: (§1) Detailed procedures regarding primary human hepatocyte (PHH) HBV natural infection assay are described as below. One tube of frozen PHH (10 million cells) is thawed in 37° C. water bath and then transferred to 20 mL of PHH thawing medium (Sigma, InVitroGRO HT Medium, Cat. S03319) with gently mixing. The cells were then centrifuged at […] for 5 min, the supernatant was discarded and the tube was refilled with 25 mL of PHH plating medium (Sigma, InVitroGRO CP Medium, Cat. S03317). The tube was shaken very gently to re-suspend all cells, and then 50 μl of cells were transferred to each well 384-well collagen I coated plate with appropriate liquid handling equipment, e.g. Integra VIAFLO384 or Agilent Bravo. The cells were then cultured for 24 hours in a cell incubator. For HBV infection, after PHH attachment on the culture plate, the plating medium was removed and replenished with PHH culture medium containing HBV virus. The PHH culture medium was prepared with Dulbecco's Modified Eagle Medium (DMEM)/F12 (1:1 in volume ratio) containing 10% fetal bovine serum (Gibco, Cat. 10099141), 5 ng/mL human epidermal growth factor (Gibco, Cat.PHG031IL), 20 ng/mL dexamethasone (Sigma, Cat.D4902-100 mg), 250 ng/mL human recombinant insulin (Gibco, Cat.41400045) and 100 U/mL penicillin. HBV virus at 200 genome equivalent (GE) per cell with 4% PEG8000 (Sigma, Cat.P1458) containing culture medium were added to the PHH culture medium for infection. The cells were then cultured for 24 hours in cell incubator. Then the cell culture supernatant was removed. The HBV-infected PHH were cultured with sandwich culture method with PHH culture medium containing 1% DMSO and 0.25 mg/mL matrix gel for 72 hours. The supernatant was then refreshed with PHH culture medium containing different concentrations of testing compounds for two times with 72-hour interval. At the end of treatment, the supernatant was collected for viral markers measurements, including HBsAg, HBeAg, HBV DNA and cytotoxicity. HBsAg and HBeAg were detected using alphalisa method using their specific antibodies. For HBV DNA detection, HBV DNA Quantitative Fluorescence Diagnostic Kit (Sansure Biotech Inc.) was used following the manufacture's protocol. Cytotoxicity was determined using Cell Counting Kit-8 (CCK8, Dojindo Molecular Technologies, Inc.).

HBsAg = experiment: PHH natural infection assay, HBsAg (alphalisa); assay type: cell-based, HBV; conditions: Hepatitis B virus, Hepatocyte, 72 h, read-out: HBsAg IC50
Protocol: as §1
(§2) The compounds of the present invention were tested for their capacity to inhibit HBsAg and HBeAg as described herein.

HBeAg = experiment: PHH natural infection assay, HBeAg (alphalisa); assay type: cell-based, HBV; conditions: Hepatitis B virus, Hepatocyte, 72 h, read-out: HBeAg IC50
Protocol: as §1, §2

| SMILES | CC50 at 144 h [1] [µM] | IC50 (HBsAg) [µM] | IC50 (HBeAg) [µM] |
| --- | --- | --- | --- |
| CC(C)Nc1ccc2nn(-c3ccc(Cl)cc3)nc2c1 [Example 30, 2-(4-Chlorophenyl)-N-isopropyl-benzotriazol-5-amine] | > 100 | 3.75 | 6.61 |
| Clc1ccc(-n2nc3ccc(NCC4CCOC4)cc3n2)cc1 (stereo not drawn) [Example 23, 2-(4-Chlorophenyl)-N-(tetrahydrofuran-3-ylmethyl)benzotriazol-5-amine] | > 100 | 4.92 | 7.67 |
| Nc1ccc2nn(-c3ccc(Cl)cc3)nc2c1 [Example 2, 2-(4-Chlorophenyl)benzotriazol-5-amine] | > 100 | 7.97 | 5.29 |
| CC(=O)Nc1ccc2nn(-c3ccc(Cl)cc3)nc2c1 [Example 38, N-[2-(4-chlorophenyl)benzotriazol-5-yl]acetamide] | > 100 | 3.65 | 5.54 |
| CC(C)c1csc(Nc2ccc3nn(-c4ccc(Cl)cc4)nc3c2)n1 [Example 62, N-[2-(4-chlorophenyl)benzotriazol-5-yl]-4-isopropyl-thiazol-2-amine] | > 100 | 3.8 | 5.8 |
| CC(C)C(=O)NC(=S)Nc1ccc2nn(-c3ccc(Cl)cc3)nc2c1 [Example 57, N-[[2-(4-chlorophenyl)benzotriazol-5-yl]carbamothioyl]-2-methyl-propanamide] | > 100 | 2.5 | 3.72 |
| O=C(Nc1ccc2nn(-c3ccc(Cl)cc3)nc2c1)C1CCCCC1 [Example 39, N-[2-(4-chlorophenyl)benzotriazol-5-yl]cyclohexanecarboxamide] | > 100 | 3.91 | 2.89 |
| COCCS(=O)(=O)c1ccc(-n2nc3ccc(N)cc3n2)cc1 [Example 9, 2-[4-(2-Methoxyethylsulfonyl)phenyl]benzotriazol-5-amine] | > 100 | 4.07 | 7.93 |
| COCCN(C)c1ccc2nn(-c3ccc(Cl)cc3)nc2c1 [Example 35, 2-(4-Chlorophenyl)-N-(2-methoxyethyl)-N-methyl-benzotriazol-5-amine] | > 100 | 2 | 3.5 |
| O=C(CCC(F)(F)F)Nc1ccc2nn(-c3ccc(Cl)cc3)nc2c1 [Example 52, N-[2-(4-chlorophenyl)benzotriazol-5-yl]-4,4,4-trifluoro-butanamide] | > 100 | 2.25 | 1.89 |
| NC(=S)Nc1ccc2nn(-c3ccc(Cl)cc3)nc2c1 [Example 53, [2-(4-Chlorophenyl)benzotriazol-5-yl]thiourea] | > 100 | 3.37 | 2.87 |
| O=C(CC(F)(F)F)Nc1ccc2nn(-c3ccc(Cl)cc3)nc2c1 [Example 51, N-[2-(4-chlorophenyl)benzotriazol-5-yl]-3,3,3-trifluoro-propanamide] | > 100 | 4.09 | 1.66 |
| CCN(CC)c1ccc2nn(-c3ccc(Cl)cc3)nc2c1 [Example 34, 2-(4-Chlorophenyl)-N,N-diethyl-benzotriazol-5-amine] | > 100 | 1.8 | 2.5 |
| CNC(=O)CCNc1ccc2nn(-c3ccc(Cl)cc3)nc2c1 [Example 37, 3-[[2-(4-Chlorophenyl)benzotriazol-5-yl]amino]-N-methyl-propanamide] | > 100 | 4.64 | 8.68 |
| Clc1ccc(-n2nc3ccc(NCC4CCCC4)cc3n2)cc1 [Example 26, 2-(4-Chlorophenyl)-N-(cyclopentylmethyl)benzotriazol-5-amine] | > 100 | 8.79 | 3.08 |
| CC(Nc1ccc2nn(-c3ccc(Cl)cc3)nc2c1)C(F)(F)F (stereo not drawn) [Example 32, 2-(4-Chlorophenyl)-N-(2,2,2-trifluoro-1-methyl-ethyl)benzotriazol-5-amine] | > 100 | 9.14 | 10.7 |
| CCS(=O)(=O)c1ccc(-n2nc3ccc(N)cc3n2)cc1 [Example 8, 2-(4-Ethylsulfonylphenyl)benzotriazol-5-amine] | > 100 | 6.32 | 6.26 |

| SMILES | CC50 at 144 h [1] [µM] | IC50 (HBsAg) [µM] | IC50 (HBeAg) [µM] |
| --- | --- | --- | --- |
| O=C(CC(F)(F)F)Nc1ccc2nn(-c3ccc(F)cc3)nc2c1 [Example 44, 3,3,3-trifluoro-N-[2-(4-fluorophenyl)benzotriazol-5-yl]propanamide] | > 100 | 6.87 | 11.7 |
| CNc1ccc2nn(-c3ccc(Cl)cc3)nc2c1 [Example 12, 2-(4-Chlorophenyl)-N-methyl-benzotriazol-5-amine] | > 100 | 1.83 | 2.44 |
| Clc1ccc(-n2nc3ccc(Nc4nc(-c5ccccc5)cs4)cc3n2)cc1 [Example 63, N-[2-(4-chlorophenyl)benzotriazol-5-yl]-4-phenyl-thiazol-2-amine] | > 100 | 1.52 | 1.34 |
| O=C(Nc1ccc2nn(-c3ccc(Cl)cc3)nc2c1)C1CCOCC1 [Example 45, N-[2-(4-chlorophenyl)benzotriazol-5-yl]tetrahydropyran-4-carboxamide] | > 100 | 3.39 | 1.98 |
| COCCNc1ccc2nn(-c3ccc(S(C)(=O)=O)cc3)nc2c1 [Example 19, N-(2-methoxyethyl)-2-(4-methylsulfonylphenyl)benzotriazol-5-amine] | > 100 | 8.94 | 6.97 |
| c1ccc(-n2nc3ccc(NC4CCCC4)cc3n2)cc1 [Example 16, N-cyclopentyl-2-phenyl-benzotriazol-5-amine] | > 100 | 9.25 | 15.8 |
| O=C(Nc1ccc2nn(-c3ccc(F)cc3)nc2c1)C1CCCCO1 (stereo not drawn) [Example 42, N-[2-(4-fluorophenyl)benzotriazol-5-yl]tetrahydropyran-2-carboxamide] | > 100 | 6.38 | 6.12 |
| CS(=O)(=O)c1ccc(-n2nc3ccc(N)cc3n2)cc1 [Example 7, 2-(4-Methylsulfonylphenyl)benzotriazol-5-amine] | > 100 | 5.67 | 3.21 |
| O=C(Nc1ccc2nn(-c3ccc(Cl)cc3)nc2c1)C1CCCC1 [Example 49, N-[2-(4-chlorophenyl)benzotriazol-5-yl]cyclopentanecarboxamide] | > 100 | 2.84 | 1.29 |
| O=C(Nc1ccc2nn(-c3ccc(F)cc3)nc2c1)C1CCOCC1 [Example 41, N-[2-(4-fluorophenyl)benzotriazol-5-yl]tetrahydropyran-4-carboxamide] | > 100 | 2.19 | 2.31 |
| Clc1ccc(-n2nc3ccc(NCC4CCC4)cc3n2)cc1 [Example 24, 2-(4-Chlorophenyl)-N-(cyclobutylmethyl)benzotriazol-5-amine] | > 100 | 7.72 | 8.9 |
| O=C(NC(=S)Nc1ccc2nn(-c3ccc(Cl)cc3)nc2c1)c1ccccc1 [Example 58, N-[[2-(4-chlorophenyl)benzotriazol-5-yl]carbamothioyl]benzamide] | > 100 | 1.17 | 1.27 |
| Cc1cc(N)cc2nn(-c3ccc(Cl)cc3)nc12 [Example 11, 2-(4-Chlorophenyl)-7-methyl-benzotriazol-5-amine] | > 100 | 2.66 | 3.89 |
| Fc1ccc(-n2nc3ccc(NCC4CCOC4)cc3n2)cc1 (stereo not drawn) [Example 20, 2-(4-Fluorophenyl)-N-(tetrahydrofuran-3-ylmethyl)benzotriazol-5-amine] | > 100 | 5.66 | 7.3 |
| Nc1ccc2nn(-c3cccc(Cl)c3)nc2c1 [Example 1, 2-(3-Chlorophenyl)benzotriazol-5-amine] | > 100 | 1.2 | 1.8 |
| COCCNc1ccc2nn(-c3cccc(OC)c3)nc2c1 [Example 17, N-(2-methoxyethyl)-2-(3-methoxyphenyl)benzotriazol-5-amine] | > 100 | 8.06 | 15.4 |
| Clc1ccc(-n2nc3ccc(NCC4CC4)cc3n2)cc1 [Example 25, 2-(4-Chlorophenyl)-N-(cyclopropylmethyl)benzotriazol-5-amine] | > 100 | 5.95 | 7.52 |
